Source: PubChem BioAssay (NCI)
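How tested: cells in 96-well plates exposed to compound for 48 hours at five concentrations. TGI: concentration producing complete growth inhibition.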

What was measured:
Assay in all cases: NCI-60 cell line screen, 48 h
786-0 renal = tested on: 786-0 renal
CCRF-CEM leukemia = tested on: CCRF-CEM leukemia
HCC-2998 colon = tested on: HCC-2998 colon
HCT-116 colon = tested on: HCT-116 colon
HCT-15 colon = tested on: HCT-15 colon
HOP-62 NSCLC = tested on: HOP-62 NSCLC
HOP-92 NSCLC = tested on: HOP-92 NSCLC
MDA-MB-231 breast = tested on: MDA-MB-231 breast
MDA-N = tested on: MDA-N
OVCAR-4 ovarian = tested on: OVCAR-4 ovarian
SF-539 CNS = tested on: SF-539 CNS
SNB-19 CNS = tested on: SNB-19 CNS
SR leukemia = tested on: SR leukemia
TK-10 renal = tested on: TK-10 renal
UACC-257 melanoma = tested on: UACC-257 melanoma
COLO 205 colon = tested on: COLO 205 colon

Compound	TGI (786-0 renal) [µM]	TGI (CCRF-CEM leukemia) [µM]	TGI (HCC-2998 colon) [µM]	TGI (HCT-116 colon) [µM]	TGI (HCT-15 colon) [µM]	TGI (HOP-62 NSCLC) [µM]	TGI (HOP-92 NSCLC) [µM]	TGI (MDA-MB-231 breast) [µM]	TGI (MDA-N) [µM]	TGI (OVCAR-4 ovarian) [µM]	TGI (SF-539 CNS) [µM]	TGI (SNB-19 CNS) [µM]	TGI (SR leukemia) [µM]	TGI (TK-10 renal) [µM]	TGI (UACC-257 melanoma) [µM]	TGI (COLO 205 colon) [µM]
O=S(=O)(c1cc(Cl)ccc1Cl)N1CCN(c2cccc(Cl)c2)CC1	> 100	> 100	> 100	> 100	> 100	> 100	> 100	> 100	> 100	> 100	> 100	> 100	> 100	> 100	> 100	–
CCCCC1(O)CC2CC1C(C)C2(C)C (stereo not drawn)	> 100	> 100	> 100	> 100	> 100	> 100	–	> 100	> 100	> 100	> 100	> 100	> 100	> 100	> 100	> 100
CC(=O)Oc1ccc2cc(-c3ccc(OC(C)=O)c(OC(C)=O)c3)c(=O)oc2c1	> 100	> 100	> 100	> 100	> 100	> 100	95.2	> 100	> 100	> 100	> 100	> 100	> 100	> 100	> 100	> 100
CCNc1nnc(-c2ccccc2Nc2ccccc2-c2nnc(NCC)s2)s1	17	31.4	27.8	> 56	> 45.2	> 100	54.2	25.7	35	> 100	–	> 100	> 100	> 57.6	90.3	> 53.9
CN(C)c1ccc(/C=C(\NC(=O)c2ccccc2)C(=O)Nc2cccc(C(=O)NCCCO)c2)cc1	> 100	> 100	> 100	> 100	> 100	> 100	> 100	> 100	> 100	> 100	> 100	> 100	–	> 100	> 100	> 100
Cc1cc2c(cc1Cl)SC(NNC1=NCCN1)=NS2(=O)=O	> 10	> 10	> 10	> 10	> 10	> 10	–	> 10	> 10	> 10	> 10	> 10	–	> 10	> 10	> 10
CN1CCN(Cc2nc3c(s2)CCc2sccc2-3)CC1	> 100	> 100	> 100	> 100	> 100	> 100	–	> 100	> 100	> 100	–	> 100	99.7	> 100	> 100	> 100
CC1=N[C@@](C)(C2CC3C=CC2C3=O)COC1=O (stereo partly drawn)	> 100	> 100	> 100	> 100	–	> 100	> 100	> 100	> 100	> 100	> 100	> 100	> 100	> 100	> 100	> 100
CC(C(=O)n1ccnc1)N1c2ccccc2Sc2ccccc21 (stereo not drawn)	> 100	> 100	–	> 100	> 100	> 100	79.9	> 100	> 100	> 100	> 100	> 100	> 100	> 100	> 100	> 100
COC(=O)Cn1c(=O)oc2nc(-c3ccccc3)cc(C(F)(F)F)c21	> 100	–	> 100	> 100	> 100	> 100	89.3	> 100	> 100	> 100	> 100	> 100	> 100	> 100	> 100	> 100
CS(=O)(=O)O[C@H]1[C@H](O)c2ccccc2[C@@H]1N=[N+]=[N-]	> 100	> 100	> 100	> 100	> 100	> 100	> 100	> 100	> 100	> 100	> 100	> 100	> 100	–	> 100	> 100
CC(=O)n1[nH]c(=O)n(-c2ccccc2)c1=O	> 100	> 100	> 100	> 100	> 100	> 100	–	> 100	> 100	> 100	–	> 100	> 100	> 100	> 100	> 100
CCOC(=O)C1(N)CC1	> 100	> 100	> 100	> 100	> 100	> 100	> 100	> 100	> 100	> 100	> 100	> 100	> 100	> 100	> 100	–
O=C(NCCCN(CCCCN(CCCNC(=O)c1cc(S(=O)(=O)O)cc(O)c1O)C(=O)c1cc(S(=O)(=O)O)cc(O)c1O)C(=O)c1cc(S(=O)(=O)O)cc(O)c1O)c1cc(S(=O)(=O)O)cc(O)c1O	> 100	> 100	> 100	> 100	> 100	–	> 100	> 100	> 100	> 100	–	> 100	> 100	> 100	> 100	> 100
CCOC(=O)N/N=C(\CC)OCC	> 100	> 100	> 100	> 100	> 100	> 100	–	> 100	> 100	–	> 100	> 100	> 100	> 100	> 100	> 100
O=C(Nc1cccc(C(=O)NCCCO)c1)/C(=C/c1ccccc1)NC(=O)c1ccccc1	> 100	> 100	> 100	> 100	> 100	> 100	> 100	> 100	> 100	> 100	> 100	> 100	–	> 100	> 100	> 100

Compound	TGI (786-0 renal) [µM]	TGI (CCRF-CEM leukemia) [µM]	TGI (HCC-2998 colon) [µM]	TGI (HCT-116 colon) [µM]	TGI (HCT-15 colon) [µM]	TGI (HOP-62 NSCLC) [µM]	TGI (HOP-92 NSCLC) [µM]	TGI (MDA-MB-231 breast) [µM]	TGI (MDA-N) [µM]	TGI (OVCAR-4 ovarian) [µM]	TGI (SF-539 CNS) [µM]	TGI (SNB-19 CNS) [µM]	TGI (SR leukemia) [µM]	TGI (TK-10 renal) [µM]	TGI (UACC-257 melanoma) [µM]	TGI (COLO 205 colon) [µM]
C=C(Cl)C(C)(Cl)CCC(Cl)C(C)C (stereo not drawn)	> 100	> 100	> 100	> 100	–	> 100	> 100	> 100	> 100	> 100	> 100	> 100	64.2	> 100	> 100	> 100
NC(=O)Cn1c(=O)oc2cc(C(=O)CN3CCOCC3)ccc21	> 100	> 100	–	> 100	–	> 100	–	> 100	> 100	–	> 100	> 100	> 100	–	–	> 100
CC1(C)CCCCCCCCCC2CC2CCC(C)(C)C1=O (stereo not drawn)	31.5	53.3	–	31.8	30.1	46	62.7	43.9	> 100	> 100	44.3	88.3	53.5	46	46.2	32.7
CCOC(=O)C(NC(=O)CC)(Nc1ccc(F)cc1F)C(F)(F)F (stereo not drawn)	> 100	> 100	> 100	> 100	> 100	–	–	–	> 100	–	> 100	> 100	> 100	> 100	> 100	> 100
COC(=O)/N=[N+](\[O-])C(c1ccccc1)c1ccccc1	> 100	> 100	> 100	> 100	> 100	–	–	> 100	> 100	> 100	> 100	> 100	> 100	> 100	> 100	> 100
CC(=O)Nc1cc2nc3n(c2cc1C)CCC3OC(C)=O (stereo not drawn)	> 100	> 100	> 100	> 100	> 100	–	> 100	> 100	> 100	> 100	> 100	> 100	> 100	–	> 100	> 100
C[N+]12C=CC=C1C(N1CCCC1)c1scc(-c3ccc(F)cc3)c12 (stereo not drawn)	> 100	4.4	–	> 100	–	> 100	–	> 100	> 100	–	–	> 100	31.9	–	–	51.3
CC(C)(C)n1c(=O)n2n(c1=O)C1c3cccc4cccc(c34)C2C2c3cccc4cccc(c34)C1n1c(=O)n(C(C)(C)C)c(=O)n12	> 100	> 100	> 100	> 100	> 100	> 100	> 100	> 100	> 100	–	> 100	> 100	–	> 100	> 100	> 100
Cc1ccccc1Nc1nc(NNC(=O)Cc2ccccc2)nc(NNC(=O)c2ccncc2)n1	> 10	> 10	> 10	–	> 10	> 10	> 10	> 10	> 10	> 10	> 10	–	> 10	> 10	> 10	> 10
C(#CC1(Nc2ccccc2)CCN(Cc2ccccc2)CC1)C1(Nc2ccccc2)CCN(Cc2ccccc2)CC1	39.5	37.3	> 100	54.2	> 46.4	40.7	33.9	42.8	> 56.2	53.7	34.9	52.9	> 24.8	39.4	–	3.5
CC(C)(C)[Si](C)(C)OCC1OC(n2ccc(=O)[nH]c2=O)C(O[Si](C)(C)C(C)(C)C)[C@]12O[C@@H]2CO (stereo partly drawn)	44.6	–	81.7	39	31.1	30.2	32.8	39.6	59	47.4	47.7	24	> 100	31	39.7	42.9
C#CCOCn1cc(C)c(=O)[nH]c1=O	> 100	> 100	> 100	> 100	> 100	> 100	–	> 100	> 100	–	> 100	> 100	> 100	> 100	> 100	> 100
NC(=O)CCC(NC(=O)c1c2ccccc2nc2ccccc12)C(=O)O (stereo not drawn)	> 100	> 100	> 100	> 100	> 100	> 100	> 100	> 100	> 100	> 100	> 100	> 100	–	> 100	> 100	> 100
Cc1cn(C2CCN(CC3COC(C)(C)O3)O2)c(=O)[nH]c1=O (stereo not drawn)	> 100	> 100	–	> 100	> 100	> 100	> 100	> 100	> 100	> 100	> 100	–	> 100	> 100	> 100	> 100
Cc1cc(C)nc(NS(=O)(=O)c2ccc(NC(=O)NC(F)(F)F)cc2)n1	> 100	> 100	> 100	> 100	> 100	–	–	–	> 100	–	> 100	> 100	> 100	> 100	> 100	> 100
O=C(CN=C(CN(c1ccccc1)c1ccccc1)Oc1ccc(Cl)cc1Cl)n1ccnc1	> 100	> 100	–	> 100	> 100	> 100	> 100	> 100	> 100	> 100	> 100	> 100	> 100	> 100	> 100	> 100
